US20250332173A1, “COMPOUNDS AND METHODS FOR MODULATING NUCLEIC ACID SPLICING” (REMIX THERAPEUTICS INC., priority 2021, published 2025)
Read-outs that look alike come from different tables or passages of the source.

Tests used:
MYB mRNA = experiment: RT-qPCR splicing assay, MYB canonical junction (CJ) and alternative junction (AJ) mRNA; assay type: cell-based, human; conditions: for AC50: increase in MYB alternative junction (AJ) mRNA, read-out: MYB AJ AC50
Method in brief: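 24 h treatment, 37 °C/5% CO2; A673 or K562; 11-pt 3-fold series, top 10 uM final; DMSO ≤0.25%. Cell lysis with DNase I, then 1-step RT-qPCR. Housekeeping normalization: PPIA (A673), GAPDH or GUSB (K562).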

MYB = experiment: HiBiT protein abundance assay, MYB HiBiT K562 cell line; assay type: cell-based, human; conditions: HiBiT K562 cell line, 24 hours, top dose 10 μM; read-out: Effect on protein abundance, MYB (IC50 category)
Method in brief: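 K562 knock-in lines with endogenous HiBiT-tagged target, 10,000 cells/well in IMDM + FBS, treated 24 h at 37° C with 10-point 3-fold dilutions (top 10 μM final; DMSO ≤0.25%). Lytic Nano-Glo HiBiT luminescence normalized to untagged K562 baseline and DMSO controls; IC50 = concentration giving 50% abundance via four-parameter fit.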

[1] = Homo sapiens, Table 5 panel, canonical junction qPCR, compound concentration having 50% response in CJ decrease, read-out: MYB IC50 (decrease in CJ mRNA levels)
[2] = Homo sapiens, decrease in MYB canonical junction (CJ) mRNA, RT-qPCR, read-out: MYB CJ IC50

IC50 (MYB mRNA; [1]) | IC50 (MYB mRNA; [2]) | IC50 (MYB) | IC50 (MYB mRNA; Table 5 panel, canonical junction qPCR, compound concentration having 50% response in CJ decrease, read-out: MYB IC50 (decrease in CJ mRNA levels)) | IC50 (MYB mRNA; decrease in MYB canonical junction (CJ) mRNA, RT-qPCR, read-out: MYB CJ IC50) | Structure (SMILES) | AC50 (MYB mRNA; Homo sapiens, RT-qPCR) | AC50 (MYB mRNA; RT-qPCR)
1 to 10 µM | 0.1 to 1 µM | 0.1 to 1 µM |  |  | Cc1cn2cc(-c3ccc4c(=O)n(C5CCNCC5)ncc4c3)cc(C(F)(F)F)c2n1 [Compound 262] | 1 to 10 µM | 
1 to 10 µM | 1 to 10 µM | 1 to 10 µM |  |  | Cc1cn2nc(-c3ccc4c(=O)n(C5CCNC5)ncc4c3)cc(C)c2n1 (centres unmarked) [Compound 264] | 1 to 10 µM | 
 |  | 0.1 to 1 µM | < 0.1 µM | < 0.1 µM | Cc1cn2nc(-c3ccc4c(=O)n([C@@H]5CCNC6(CC6)C5)cnc4c3)cc(C)c2n1 [Compound 444] |  | < 0.1 µM
> 10 µM | > 10 µM | > 10 µM |  |  | O=c1c2ccc(-c3cn[nH]c3)cc2cnn1C1CCNCC1 [Compound 261] | > 10 µM | 
0.1 to 1 µM | 0.1 to 1 µM | 0.1 to 1 µM |  |  | Cc1cn2nc(-c3ccc4c(=O)n(C5CCNCC5)ncc4c3)nc2c(C)n1 [Compound 259] | 0.1 to 1 µM | 
1 to 10 µM | 0.1 to 1 µM | 0.1 to 1 µM |  |  | Cc1cn2nc(-c3ccc4c(=O)n(C5CCNCC5)ncc4c3)cc2c(C)n1 [Compound 260] | 1 to 10 µM | 
> 10 µM | > 10 µM | > 10 µM |  |  | Cn1cc2ccc(-c3ccc4c(=O)n(C5CCNCC5)ncc4c3)cc2n1 [Compound 263] | > 10 µM | 
0.1 to 1 µM | < 0.1 µM | 0.1 to 1 µM |  |  | Cc1cn2nc(-c3ccc4c(=O)n(C5CCN(C)CC5)ncc4c3)cc(C)c2n1 [Compound 265] | 0.1 to 1 µM | 

Continued, compound first:

Structure (SMILES) | IC50 (MYB mRNA; [1]) | IC50 (MYB mRNA; [2]) | IC50 (MYB) | IC50 (MYB mRNA; Table 5 panel, canonical junction qPCR, compound concentration having 50% response in CJ decrease, read-out: MYB IC50 (decrease in CJ mRNA levels)) | IC50 (MYB mRNA; decrease in MYB canonical junction (CJ) mRNA, RT-qPCR, read-out: MYB CJ IC50) | AC50 (MYB mRNA; Homo sapiens, RT-qPCR) | AC50 (MYB mRNA; RT-qPCR)
Cc1nc2c(F)cc(-c3ccc4c(=O)n(C5CCNCC5)ncc4c3)cc2s1 [Compound 253] | 1 to 10 µM | 1 to 10 µM | 1 to 10 µM |  |  | 1 to 10 µM | 
Cc1cn2nc(-c3cc(F)c4c(=O)n(C5CCNCC5)cnc4c3)cc(C)c2n1 [Compound 243] | < 0.1 µM | < 0.1 µM | < 0.1 µM |  |  | < 0.1 µM | 
Cc1cn2cc(-c3ccc4c(c3)CCN(C3CCNCC3)C4=O)cc(C(F)(F)F)c2n1 [Compound 252] | 1 to 10 µM | 1 to 10 µM | 1 to 10 µM |  |  | 1 to 10 µM | 
Cc1cn2cc(-c3ccc4c(=O)n(C5CCNCC5)ncc4c3)cc(F)c2n1 [Compound 248] | 0.1 to 1 µM | 0.1 to 1 µM | < 0.1 µM |  |  | 0.1 to 1 µM | 
Cc1nc2c(F)cc(-c3ccc4c(=O)n(C5CCNCC5)cnc4c3)cc2o1 [Compound 245] | 0.1 to 1 µM | 0.1 to 1 µM | 0.1 to 1 µM |  |  | 0.1 to 1 µM | 
Cc1cn2cc(-c3ccc4c(=O)n(C5CCN(C)CC5)cnc4c3)c(C)cc2n1 [Compound 246] | 1 to 10 µM | 1 to 10 µM | 1 to 10 µM |  |  | 1 to 10 µM | 
Cc1cn2cc(-c3ccc4c(=O)n(C5CCNCC5)cnc4c3)c(C)cc2n1 [Compound 244] | > 10 µM | > 10 µM | > 10 µM |  |  | > 10 µM | 
Cc1cn2cc(-c3ccc4c(=O)n(C5CCNCC5)ncc4c3)cc(C)c2n1 [Compound 257] | 0.1 to 1 µM | 0.1 to 1 µM | 0.1 to 1 µM |  |  | 0.1 to 1 µM | 
Cc1cn2cc(-c3ccc4c(=O)n(C5CCNCC5)ncc4c3)ncc2n1 [Compound 255] | 1 to 10 µM | 1 to 10 µM | > 10 µM |  |  | 1 to 10 µM | 
Cc1cn2cc(-c3ccc4c(c3)CCN(C3CCNCC3)C4=O)cc(F)c2n1 [Compound 247] | 0.1 to 1 µM | 0.1 to 1 µM | 0.1 to 1 µM |  |  | 0.1 to 1 µM | 
Cc1cc(-c2ccc3c(=O)n(C4CCNCC4)ncc3c2)cc2cn(C)nc12 [Compound 251] | 0.1 to 1 µM | 0.1 to 1 µM | 0.1 to 1 µM |  |  | 0.1 to 1 µM | 
Cc1nc2c(F)cc(-c3ccc4c(=O)n(C5CCNCC5)ncc4c3)cc2o1 [Compound 250] | 0.1 to 1 µM | 0.1 to 1 µM | < 0.1 µM |  |  | 0.1 to 1 µM | 
Cc1cn2cc(-c3ccc4c(=O)n(C5CCNCC5)ncc4c3)cc(Cl)c2n1 [Compound 256] | 0.1 to 1 µM | 0.1 to 1 µM | 0.1 to 1 µM |  |  | 0.1 to 1 µM | 
Cc1cn2cc(-c3ccc4c(=O)n(C5CCNCC5)ncc4c3)c(C)cc2n1 [Compound 254] | 1 to 10 µM | 1 to 10 µM | 1 to 10 µM |  |  | 1 to 10 µM | 
Cn1cc2cc(-c3ccc4c(=O)n(C5CCNCC5)ncc4c3)cc(F)c2n1 [Compound 249] | 1 to 10 µM | 1 to 10 µM | 1 to 10 µM |  |  | 1 to 10 µM | 
